Experimental data from ChEMBL document CHEMBL1201862, “PubChem BioAssay data set” (2004).
Where “and” joins values, the source holds several entries; their conditions need not be identical. Identical values can stand only once.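 Method: 48-hour compound exposure of cells in 96-well plates, five concentrations, linear interpolation of endpoints. GI50 marks 50% less growth.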 Calls of active or inactive are those of the source. No stated cut-off is given here; in the data, active = GI50 up to about 1.1 µM and inactive = higher. Where a SMILES comes first, the peptide text is derived from it.

Experiments:
Assay in all cases: DTP human tumour cell line panel, 48 h
[1] = test system: RXF 393
[2] = test system: COLO 205
[3] = test system: HCT-15
[4] = test system: K562
[5] = test system: CAKI-1
[6] = test system: RPMI-8226
[7] = test system: M14
[8] = test system: NCI-H522
[9] = test system: HOP-62
[10] = test system: SK-MEL-5
[11] = test system: MDA-MB-231
[12] = test system: SN12C
[13] = test system: KM12
[14] = test system: BT-549
[15] = test system: SF-268
[16] = test system: EKVX
[17] = test system: TK-10
[18] = test system: SK-MEL-28
[19] = test system: UACC-257
[20] = test system: NCI-H226

SMILES | GI50 [1] | GI50 [2] | GI50 [3] | GI50 [4] | GI50 [5] | GI50 [6] | GI50 [7] | GI50 [8] | GI50 [9] | GI50 [10] | GI50 [11] | GI50 [12] | GI50 [13] | GI50 [14] | GI50 [15] | GI50 [16] | GI50 [17] | GI50 [18] | GI50 [19] | GI50 [20]
O=C1C(Nc2ccccc2)=CC2=NCCc3n[nH]c1c32 | > 100 µM (inactive) | 33.1 µM (inactive) | 19.8 µM | 38.5 µM (inactive) | 72.6 µM (inactive) | 26.4 µM (inactive) | 46.8 µM (inactive) | 32.5 µM (inactive) | 91.2 µM (inactive) | 18.5 µM (inactive) | 34.8 µM (inactive) | 34.8 µM (inactive) | 20.4 µM (inactive) | 40.8 µM (inactive) | 65.2 µM (inactive) | 41.1 µM (inactive) | > 100 µM (inactive) | 68.1 µM (inactive) | – | –
CCn1c2ccccc2c2cc(/N=N\c3ccc(C#N)cc3)ccc21 | – | 74.5 µM (inactive) | > 100 µM | – | 20.4 µM (inactive) | – | 25.9 µM (inactive) | 38.9 µM (inactive) | 28 µM (inactive) | 50.7 µM (inactive) | 17 µM (inactive) | > 100 µM (inactive) | 83.6 µM (inactive) | 20.7 µM (inactive) | 54.7 µM (inactive) | 33.3 µM (inactive) | 32.1 µM (inactive) | > 100 µM (inactive) | 58.9 µM (inactive) | 56.8 µM (inactive)
COc1ccc(Nc2nc3ccccc3nc2C(=O)O)cc1 | > 100 µM (inactive) | 37.7 µM (inactive) | 36.1 µM | 63.4 µM (inactive) | 46.6 µM (inactive) | – | > 100 µM (inactive) | 92 µM (inactive) | > 100 µM (inactive) | 37.2 µM (inactive) | > 100 µM (inactive) | 80.2 µM (inactive) | 26.2 µM (inactive) | > 100 µM (inactive) | 61.1 µM (inactive) | 54.5 µM (inactive) | > 100 µM (inactive) | 68.4 µM (inactive) | > 100 µM (inactive) | –
CC(C)OP(=O)(c1ccccc1)c1ccc2c(c1)OCCOCCOCCOCCO2 (centres undefined) | – | > 100 µM (inactive) | > 100 µM | > 100 µM (inactive) | – | > 100 µM (inactive) | – | 84.7 µM (inactive) | > 100 µM (inactive) | > 100 µM (inactive) | > 100 µM (inactive) | > 100 µM (inactive) | > 100 µM (inactive) | > 100 µM (inactive) | > 100 µM (inactive) | > 100 µM (inactive) | > 100 µM (inactive) | > 100 µM (inactive) | > 100 µM (inactive) | > 100 µM (inactive)
CC(=O)OC1CC2C(=O)CC1(C)C2(C)C (centres undefined) | > 100 µM (inactive) | > 100 µM (inactive) | > 100 µM | > 100 µM (inactive) and > 80.4 µM (inactive) | > 100 µM (inactive) | > 100 µM (inactive) | > 100 µM (inactive) | > 100 µM (inactive) | > 100 µM (inactive) | > 100 µM (inactive) | > 100 µM (inactive) | > 100 µM (inactive) | > 100 µM (inactive) | – | > 100 µM (inactive) | > 100 µM (inactive) | > 100 µM (inactive) | > 100 µM (inactive) | > 100 µM (inactive) | > 100 µM (inactive)
Nc1ccn(C2CC3OCC3O2)c(=O)n1 (centres undefined) | – | > 100 µM (inactive) | > 100 µM | > 100 µM (inactive) | > 100 µM (inactive) | > 100 µM (inactive) | > 100 µM (inactive) | > 100 µM (inactive) | > 100 µM (inactive) | > 100 µM (inactive) | > 100 µM (inactive) | > 100 µM (inactive) | > 100 µM (inactive) | > 100 µM (inactive) | > 100 µM (inactive) | > 100 µM (inactive) | > 100 µM (inactive) | > 100 µM (inactive) | > 100 µM (inactive) | > 100 µM (inactive)
CCC(C)C(NC(=O)C1CCCN1C(=O)C(CC(C)C)NC(=O)C(CC(C)C)NC(=O)C(N)CC(C)C)C(=O)NC(C(=O)NCC(=O)NC(CC(N)=O)C(=O)NC(CC(C)C)C(=O)NC(CC(C)C)C(=O)NC(CC(C)C)C(N)=O)C(C)C (centres undefined) (H-LLLPIVGNLLL-NH2; configuration not given here) | – | > 50 µM (inactive) | > 50 µM | – | > 50 µM (inactive) | > 50 µM (inactive) | > 50 µM (inactive) | > 50 µM (inactive) | > 50 µM (inactive) | > 50 µM (inactive) | > 50 µM (inactive) | > 50 µM (inactive) | > 50 µM (inactive) | > 50 µM (inactive) | > 50 µM (inactive) | > 50 µM (inactive) | > 50 µM (inactive) | > 50 µM (inactive) | > 50 µM (inactive) | > 50 µM (inactive)
CC1(C)CC(O)CC(C)(C)N1O [TEMPOL HYDROXYLAMINE] | > 100 µM (inactive) | > 100 µM (inactive) | > 100 µM | > 100 µM (inactive) | > 100 µM (inactive) | > 100 µM (inactive) | > 100 µM (inactive) | – | > 100 µM (inactive) | > 100 µM (inactive) | > 100 µM (inactive) | > 100 µM (inactive) | > 100 µM (inactive) | > 100 µM (inactive) | > 100 µM (inactive) | > 100 µM (inactive) | > 100 µM (inactive) | > 100 µM (inactive) | > 100 µM (inactive) | –
